The subject of one test is pMAPK. Kind of test: pMAPK immunoblot in TT cells. In kind it is cell-based, human. The conditions noted are these: 1 nM. As to the method:
FIG. 3: Photographs of blots showing inhibition of RET protein endogenously expressed in TT cells (human MTC cell line expressing RET/C634W) by indicated concentrations of Pz-1 or vehicle (NT: not treated) and reduced effects in thyroid non-transformed Nthy-ori-3-1 cells. Serum-starved human TT and thyroid non-transformed Nthy-ori-3-1 cell lines were treated for 2 hr with indicated concentrations of Pz-1. 50 μg of total cell lysates were subjected to immunoblotting with anti-phospho-Y1062 (αp1062) and anti-phospho-905 (αpY905) RET antibodies, anti-phospho-MAPK (αpMAPK, T302/Y304), and anti-phospho-SHC (αpSHC, Y317) antibodies. The blots were normalized using anti-RET (αRET) and anti-SHC (αSHC).
(§1) The inhibition of RET auto-phosphorylation by Pz-1 was measured in several different cell lines including NIH3T3 fibroblasts expressing RET/C634Y or RET/M918T, TT expressing RET/C634W (MTC), Nthy-ory-3-1 (thyroid, non-transformed with RET; negative control), HEK293/RET/PTC1 (CCDC6-RET that can be found in PTC & lung cancer), HEK293/RET-KIF5B (that can be found in lung cancer), HEK293/RET/PTC3 (NCOA4-RET, that can be found in PTC & lung cancer), and HEK293 transfected with RET/C634R-V804M (FIGS. 1-3). […]
Protein lysates were prepared according to standard procedures. […] Immune complexes were detected with the enhanced chemiluminescence kit (Amersham Pharmacia Biotech, Little Chalfort, UK). […]
A general note: In western blotting, separated proteins are transferred to a membrane and probed.

In test [1] the test system is RET (RET/C634Y, RET/M918T, RET/C634W, RET/PTC1, RET/PTC3, KIF5B-RET, RET/C634R-V804M). Kind of test: RET auto-phosphorylation immunoblot, all cell lines and mutations tested. The test is classed as cell-based. As for the experimental part:
FIG. 1: Photographs of blots showing inhibition of phosphorylation of RET/C634Y and RET/M918T in intact cells by Pz-1 or vehicle (NT: not treated). Serum-starved NIH3T3 cells expressing RET/C634Y or RET/M918T mutants were treated for 2 hr with indicated concentrations of Pz-1. 50 μg of total cell lysates were subjected to immunoblotting with anti-phospho-Y1062 (αp1062) or anti-phospho-Y905 (αp905) RET antibodies. The blots were normalized using anti-RET (αRET) antibodies.
FIG. 2: Photographs of blots showing inhibition of phosphorylation of gate-keeper RET point mutant and rearranged RET oncoproteins by Pz-1 or vehicle (NT: not treated). HEK293 cells were transiently transfected with vectors expressing RET/C634R-V804M mutant (V804 is the gate-keeper RET residue), or RET/PTC1 (CCDC6-RET, found in papillary thyroid carcinoma and lung adenocarcinoma), RET/PTC3 (NCOA4-RET, found in papillary thyroid carcinoma and lung adenocarcinoma), or KIF5B-RET (found in lung adenocarcinoma). After 36 hr from transfection, cells were serum-starved for 12 hr and then treated for 2 hr with indicated concentrations of Pz-1. 50 μg of total cell lysates were subjected to immunoblotting with anti-phospho-Y1062 (αp1062) and anti-phospho-Y905 (αp905) RET antibodies. The blots were normalized using anti-RET (αRET) antibody.
FIG. 3: Photographs of blots showing inhibition of RET protein endogenously expressed in TT cells (human MTC cell line expressing RET/C634W) by indicated concentrations of Pz-1 or vehicle (NT: not treated) and reduced effects in thyroid non-transformed Nthy-ori-3-1 cells. […]
as §1

SMILES strings stand for the structures. Entries after “also recorded” stand apart in the source; their conditions may differ.

`Cn1cc(-c2ccc3c(c2)ncn3-c2ccc(CC(=O)Nc3cc(C(C)(C)C)on3)cc2)cn1` [Pz-1, N-(5-(tert-butyl)isoxazol-3-yl)-2-(4-(5-(1-methyl-1H-pyrazol-4-yl)-1H-benzo[d]imidazol-1-yl)phenyl)acetamide]: in the test on pMAPK, the “inhibition of pMAPK” value is given as “strongly inhibited”. In test [1] (1 nM, 2 hrs, all cell-lines), the “inhibition of pRET” value is on record as “strong inhibition; also recorded: strongly inhibited”. Besides, the “concentration at which potent on RET and all tested RET mutants including RET/V804M” value in test [1] (FIGS. 1-3) was “less than 1 nM”. Moreover, the “inhibition of RET auto-phosphorylation” value in test [1] (nanomolar concentrations, all cell lines and mutations tested) was 90%.

(Values after patent publication US9988371B2, “Benzimidazole analogues and related methods” (The Arizona Board of Regents, on Behalf of the University …, priority 2014, dated 2018).)
